Legend:
[1] = Static bioassay, lethal concentration to coho salmon; assay type: in vivo, Oncorhynchus kisutch; details: coho salmon, water, 10 C
Description: (§1) Bioassays utilized water from an artesian well at Moscow, Idaho and from the headwaters of the Palouse River, also in Idaho. The chemical characteristics of the artesian water were analyzed as follows: Total hardness 67-120 mg/l; total dissolved solids, 160-175 mg/l; and pH 7.1. The chemistry of the Palouse River water was analyzed as follows: total hardness 17 mg/l; methyl orange alkalinity 26 mg/l; total dissolved solids, 32 mg/l and pH, 7.0.
(§2) Fish were acclimated to test temperatures, usually at 5, 7.5, 10, 15 and 20 degrees Celsius (C), at least 60 hours before exposure to toxicants. For fish and crayfish four water baths regulated the temperature of assay aquaria. Each water bath contained a battery of 20 identical 19-liter clear glass containers or 11.4-liter plastic aquaria lined with disposable polyethylene bags and covered with Plexiglass lids to reduce evaporation. For larger fish and large numbers of fish the bioassays were made in two temperature controlled rooms that contained a series of 700-liter circular fiberglass vats and a series of 76- and 91-liter plastic containers.
(§3) Standard bioassay techniques were used in sorting fish and conducting the tests. Fish were placed in aerated test aquaria overnight to permit fish to recover from stress due to handling and to deprive them of food. The average load varied but most bioassays were conducted with about 1 g of fish per liter of water.
(§4) Aliquots of organophosphates were dissolved in ethanol and dispensed to the aquaria to provide concentrations suitable for obtaining the LC0 and LC50 of desirable fish and the LC50 and LC100 of target fish. Control fish were conditioned in the same manner as the test fish, but no chemical was added to the control vessels during the assays. After the addition of a chemical, observations were made mainly at 3, 6, 12, 24, 48, 96, and 192 h. The weight and fork length of fish were obtained when fishes were sacrificed.
(§5) Delineation bioassays determined primarily the LC50 and LC100 of sucker and stickleback and the LC0 and LC50 of salmonids.
(§6) The statistical LC1, LC50, and LC99 were interpolated and/or extrapolated using probit graph paper to approximate the LC0, LC50, and LC100 when the latter set of values was not closely determined by single concentrations in a series.
(§7) Threespine stickleback, brook stickleback, bridgelip sucker, white sucker, chinook salmon, coho salmon, sockeye salmon, kokanee, Kamloops trout, cutthroat trout, and brook trout were treated with various concentrations of 2, 2, 2, 1-tetrachloroethyl diethyl phosphate and at various temperatures to determine approximate selectivity and safety indices. The approximate LC50 and LC100 of the target fishes (threespine and brook sticklebacks and bridgelip and white suckers) are tabulated in Table 5. The 96-hour selectivity and safety indices of selected species of salmonids versus the threespine stickleback are tabulated in Table 7.

coho salmon = test: as above; assay type: in vivo, Oncorhynchus kisutch; details: 10 C
Description: as §1, §2, §3, §4, §5, §6, §7

[2] = Static bioassay, lethal concentration to kokanee; assay type: in vivo, a land-locked subspecies of sockeye salmon; details: kokanee, water, 15 C
Description: as §1, §2, §3, §4, §5, §6, §7

kokanee = test: Static bioassay, lethal concentration to kokanee; assay type: in vivo, a land-locked subspecies of sockeye salmon; details: 15 C
Description: as §1, §2, §3, §4, §5, §6, §7

crayfish = test: Long-term static bioassay, crayfish; details: 2 μg/l; one also missing in control
longnose sucker = test: Exploratory bioassay, longnose sucker; assay type: in vivo, C. catastomus; details: less than 24 h; 15 C; 47 to 61 mm
Description: Cursory bioassays were made with small numbers of other fishes and a crayfish (Pacifasticus klamathensis) to check on the universal selectivity of the toxicants. The fishes included Arctic grayling (Thymallus arcticus), longnose sucker (C. catastomus), largescale sucker, (C. macrocheilus), and spotted sucker (Minytrema melanops).
A series of 24-hour bioassays was made with the longnose sucker (1 fish per aquarium) at a concentration range of 0.1 mg/l to 4.5 mg/l of 2, 2-dichlorovinyl diethyl phosphate. The chemical killed the longnose sucker (47 to 61 mm) at a concentration of 0.2 mg/l and higher in less than 24 hours at 15 C.
Three longnose suckers (about 125 mm) and three Arctic grayling (about 125 mm) were exposed to 10 μg/l of 2, 2, 2, 1-tetrachloroethyl diethyl phosphate. The suckers died between 14 and 22 hours at 13 C. The grayling were not affected in 48-hour biassays.

[3] = Half-life in river water with or without river mud, measured by bioassay with stickleback; assay type: physicochemical; details: river water with layer of river mud; 15 C
Description: The rate of deactivation was measured by bioassay with stickleback and the data were analyzed by conventional methods.

stickleback = test: Control of stickleback in 24-hour applications, usable concentration; assay type: in vivo; details: for recommended safe and effective concentration: river water tests
From the text: For field applications the concentration of the dichloro- and tetrachloro-compounds would vary with water quality--mainly with regard to water temperature and hydrogen ion concentrations. Generally, treated areas would contain water low in dissolved solids and a pH of 7 to 7.5. The activity of the chemicals would then be essentially similar to that determined in our tests using river water. For the treatment of rivers and shorelines of lakes the concentrations of the dichloro- and tetrachloro-compounds that would be used would be those that would kill stickleback or suckers in 12 to 24 hours. The information above, relating to Examples 1 and 12, substantiates improvement in fish culture by the addition of dichloroethyl or dichlorovinyl diethyl phosphate to an aqueous habitat at a concentration in water ranging between 0.1 and 10 mg/l. […] The information above, relating to Example 2, substantiates improvement in fish culture by the addition of tetrachloroethyl diethyl phosphate to an aqueous habitat at a concentration in water ranging between 4 and 80 μg/l.

in vivo = details: steelhead trout

Structure (SMILES) | LC50 at 96 h ([1]; 96 h) [mg/L] | LC50 at 192 h ([1]; 192 h) [mg/L] | LC0 (coho salmon; 48 h) [µg/L] | LC0 (coho salmon; 96 h) [µg/L] | LC0 (coho salmon; 192 h) [µg/L] | LC50 at 48 h ([2]; 48 h) [mg/L] | LC50 at 96 h ([2]; 96 h) [mg/L] | LC50 at 192 h ([2]; 192 h) [mg/L] | LC0 (kokanee; 48 h) [µg/L] | LC0 (kokanee; 96 h) [µg/L] | LC0 (kokanee; 192 h) [µg/L] | crayfish missing (crayfish) | concentration that killed longnose sucker (longnose sucker) [mg/L] | half-life [3] [days] | recommended safe and effective concentration (stickleback; 10 C) [mg/L] | recommended safe and effective concentration (stickleback; 15 C) [mg/L] | concentrations for control (upper: greater than) (stickleback; Kamloops, 10 C, 24 h or less, river water) | LC50 at 96 h (in vivo) [mg/L] | LC50 at 192 h (in vivo) [mg/L]
CCOP(=O)(OCC)OC(Cl)C(Cl)(Cl)Cl (stereo not shown) [2,2,2,1-tetrachloroethyl diethyl phosphate] | 0.023 | 0.015 | 30 | 14 | 8 | 0.04 | 0.03 | 0.027 | 30 | 20 | 20 | one |  |  |  |  |  |  | 
CCOP(=O)(OC=C(Cl)Cl)OCC [2,2-dichlorovinyl diethyl phosphate] |  |  |  |  |  |  |  |  |  |  |  |  | ≥ 0.2 | 15 | 5 | 3 | 4-4 mg/l | 7.1 | 2.8

Reference: patent US4395969A (priority 1981, dated 1983)
